From patent US11167006B2 (Shanghai Tianci Life Science Development Co., Ltd., priority 2016, dated 2021) come the findings set out here.

The test system of series [1] is gastrointestinal movement of male mice of Kunming strain. The series is described as follows: Gastrointestinal movement in vivo (activated carbon suspension). Also noted: species or system mouse. The method, then: Male mice of Kunming strain, weighing 26±2 g. The commonly used toner detection method was used in the detection of astrointestinal movement in vivo. The specific experimental procedure was: before the gastrointestinal movement experiment, the mice were fasted for 16 hours (free drinking during fasting), then the drug was injected through spinal cord or subcutaneously, and after 15 minutes, the activated carbon suspension prepared in advance (a physiological saline suspension containing 5% of activated carbon and 10% gum arabic) was orally perfused into the stomach in a volume of 0.1 ml per 10 g of body weight. After 30 minutes from the perfusion of activated carbon suspension, the animals were sacrificed by cervical dislocation, and then the small intestine of the animal from the pylorus to the cecum was carefully taken out. The total lengths of the small intestine from the pylorus to the cecum and the furthest distance from which the activated carbon suspension moves were measured.
Gastrointestinal movement test results were evaluated by a percentage of gastrointestinal movement, and the percentage of gastrointestinal movement per mouse was calculated by dividing the moving distance of the activated carbon suspension by the total length of the small intestine. The relevant data were expressed as mean of the percentage of gastrointestinal movement±standard error (Means±S.E.M.), the data for differences between groups treated with different drug concentrations were analyzed by one-way ANOVA (Dunnett test in one-way ANOVA) for statistics and analysis, ***P<0.001 represented that there was a significant difference between the percentage of gastrointestinal movement of the drug-treated group and that of the saline group.

The subject of the next series is mice. The series is described as follows: Conditional position preference test (CPP). The class given is in vivo, mouse. Conditions: subcutaneous 10 mg/kg. The method, then:
The conditional position preference experimental device is a closed device (45×20×20 cm) assembled from transparent plexiglass plates. Two 20×20×20 cm conditional preference boxes are located at both ends of the device, with a small compartment 5×20×20 cm having a passage (5×5×5 cm) connected in the middle. On the first day of the experiment, the passage was kept open, the mice was placed into the device for 15 min, and the mice that had been explored for more than 9 min in any of the preference boxes were excluded. […] On day 5, the passage was kept opened again to ensure that the mice were free to enter into the two preference boxes, and the time that the mice stayed in the drug matching preference box within 15 minutes of the total time was recorded.
The experimental relevant data were expressed as mean±standard error (Means±S.E.M.), and the conditional position preference score represents the time spent on the drug matching preference box on day 5 of each mouse minus the time on the first day in this preference box. Differences between groups treated with different drugs in CPP trials were analyzed by one-way ANOVA (Tukey HSD test in one-way ANOVA) for data statistics and analysis.

Series [2] relates to inflammatory pain in mice. The series is described as follows: Inflammatory pain model (Carrageenan or CFA). It is filed as in vivo, mouse. The method, then:
Inflammatory pain in mice was measured using a hot stinging apparatus and an electronic Von Frey tenderness instrument, and the basal pain threshold of normal mice was firstly determined. Then 20 μl of 2% Carrageenan solution or CFA solution was injected subcutaneously into the mouse paw. The thermal and mechanical pain sensitivity value values of the injected paw in mice were tested after 24 hours (Carrageenan) or 4 days (CFA), and then compound 9 was administered into lateral ventricle, intrathecally or subcutaneously, and the pain threshold at different time points after administration were recorded.
The experimental data were expressed as mean±standard error (Means±S.E.M.), and the data for differences between groups treated with different drug concentrations were analyzed by one-way ANOVA (Bonferroni test in one-way ANOVA) for statistics and analysis, ***P<0.001 represents that there was a significant difference between the pain threshold value of the drug-treated group and that of the saline group.

For series [3], the system named is male mice of Kunming strain. The series is described as follows: Analgesic tolerance test (photothermal tail flick). The class given is in vivo, mouse. The method, then:
The mice were injected with the drug in the lateral ventricle of the mice for six consecutive days or in the subcutaneous of the mice for eight consecutive days, and their analgesic tolerance were detected by photothermal tail flick method, and the pharmacological activity of the compounds of the present invention in analgesic tolerance was further explored.
In male mice of Kunming strain, the drug was injected continuously in the lateral ventricle for six days, once a day, and the effect of continuous injection of drugs on the pain sensation was detected by a photothermal tail flick instrument. The ambient temperature is controlled at 22±1° C., and the experimental animals are free to eat and drink. The test drug was injected into the lateral ventricle of the mouse for 6 consecutive days, 4 μl per injection. The basic tail flick incubation period (3-5 seconds) was measured before the first day of drug injection, and those mice that were too sensitive or dull were discarded. The tail flick incubation period of 5, 10, 15, 20, 30 min after administration on the first and sixth days was recorded in the experiment. To prevent scald on the tail of the mouse, the maximum tail flick incubation period was set as 10 seconds,
In addition, we further studied the tolerance of subcutaneous administration of compound 9 and morphine in the photothermal tail flick test. The ambient temperature is controlled at 22±1° C., and the experimental animals are free to eat and drink. First, the basic tail flick incubation period (3-5 seconds) of the mice was measured before administration, and then compound 9 or morphine was administered subcutaneously for eight consecutive days. The tail flick incubation period of 10, 15 and 20 minutes after daily administration were recorded. To prevent scald on the tail of the mouse, the maximum tail flick incubation period was set as 10 seconds.
The experimental data is expressed by MPE (maximum possible effect), MPE (%)=100×[(pain threshold after administration−basal pain threshold)/(10 seconds−basal pain threshold)]. The analgesic tolerance of the drug was compared using the MPE value at the time of maximum analgesic effect of the drug. MPE data was expressed as mean±standard error (Means±S.E.M.). The difference in the analgesic effect of continuous administration in the lateral ventricle of the mice for six days was statistically analyzed by the paired T test, and the difference in the analgesic effect of subcutaneous continuous administration for eight days was analyzed by One-way analysis of variance (one-way ANOVA's Tukey HSD test) for statistics, and ***P<0.001 indicates a significant difference from the analgesic effect of the drug injected on the first day.

Structures are written as SMILES. Entries after “also recorded” stand apart in the source; their conditions may differ. Square brackets hold non-standard residues; d marks the D form. Peptide text beside a SMILES is read from it. NMeF = CN[C@@H](Cc1ccccc1)C(=O)O

For `C[C@@H](NC(=O)[C@@H](N)Cc1ccc(O)cc1)C(=O)NCC(=O)N(C)[C@@H](Cc1ccccc1)C(=O)NCC(=O)N1CCC[C@H]1C(=O)N[C@@H](CCC(N)=O)C(=O)N[C@@H](CCCNC(=N)N)C(=O)N[C@@H](Cc1ccccc1)C(N)=O` [Compound 9, Tyr-D-Ala-Gly-NMe-Phe-Gly-Pro-Gln-Arg-Phe-NH2] (H-Y[dA]G[NMeF]GPQRF-NH2), the “percentage of gastrointestinal movement” value in series [1] (10 mg/kg (compound 9 subcutaneous; morphine positive control)) came to 37.10%; in series [1] (intrathecal injection, 100 pmol), 45.71%; in series [1] (intrathecal injection, 300 pmol), 31.40%; in series [1] (intrathecal injection, 500 pmol), 21.67%; in series [1] (subcutaneous, 1 mg/kg) it was 47.28%; in series [1] (subcutaneous, 30 mg/kg), 33.12%. In series [1] (subcutaneous, 100 mg/kg), the “percentage of gastrointestinal movement” value amounted to 24.14%. The “dose with significant inhibitory effect on gastrointestinal movement” value in series [1] (intrathecal injection) is at least 300 pmol. In the series with mice, the “conditional positional preference” value is given as “produced significant conditional positional preference; also recorded: lower degree of preference than morphine”. Moreover, the figures for the “analgesic ED50 value, inflammatory pain” value in series [2] (intrathecal (FIG. 15: carrageenan-induced)), in series [2] (lateral ventricle (FIG. 14: CFA-induced)) and in series [2] (subcutaneous (FIG. 16: carrageenan-induced)) were 2.98 (2.50-3.54) pmol, 5.20 (2.06-13.10) pmol and 3.24 (2.81-3.74) mg/kg, respectively. Moreover, the “analgesic tolerance” value in series [3] (eight consecutive days subcutaneous, 10 mg/kg) is reported as “not significantly different from that of the first day”. In addition, in series [3] (tail flick, subcutaneous 10 mg/kg), the “analgesia effect compared with morphine” value is “equivalent to that of an equal dose of morphine”.
